Laboratory results reported in patent US20250235460A1, “COMBINATION THERAPY USING GLUCOSE-DEPENDENT INSULINOTROPIC POLYPEPTIDE RECEPTOR ANTAGONIST COMPOUNDS AND GLP-1 RECEPTOR AGONIST COMPOUNDS” (Pfizer Inc., priority 2024, published 2025).

Tests used:
human GLP-1R [1] = target: human GLP-1R (Homo sapiens, UniProt P43220, L260F); test: CHO GLP-1R Clone C6 cAMP HTRF agonist assay (Assay 2, low receptor density); assay type: cell-based; details: for EC50: CHO GLP-1R clone C6, cAMP HTRF, geometric mean
Sequence of human GLP-1R (Homo sapiens, UniProt P43220, L260F) (P43220 24-463 L260F): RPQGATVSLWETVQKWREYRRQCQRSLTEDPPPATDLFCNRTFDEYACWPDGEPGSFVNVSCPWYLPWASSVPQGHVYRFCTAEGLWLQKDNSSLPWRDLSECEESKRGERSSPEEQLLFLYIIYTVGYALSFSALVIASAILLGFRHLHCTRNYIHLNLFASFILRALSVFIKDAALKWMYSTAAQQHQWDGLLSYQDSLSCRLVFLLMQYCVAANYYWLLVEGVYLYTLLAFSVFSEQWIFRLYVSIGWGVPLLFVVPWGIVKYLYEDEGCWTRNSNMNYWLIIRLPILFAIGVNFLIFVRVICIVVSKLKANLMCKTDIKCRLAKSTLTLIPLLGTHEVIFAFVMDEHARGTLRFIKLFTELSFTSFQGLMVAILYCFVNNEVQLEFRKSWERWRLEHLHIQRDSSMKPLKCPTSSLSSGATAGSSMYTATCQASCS
Source text: In Table 5 and Table 6, assay data are presented to two (2) significant figures as the geometric mean (EC50s) and arithmetic mean (Emax) based on the number of replicates listed (Number). A blank cell means there was no data for that Example or the Emax was not calculated.

human GLP-1R [2] = target: human GLP-1R (Homo sapiens, UniProt P43220, G168S); test: CHO GLP-1R Clone H6 cAMP HTRF agonist assay (Assay 1, high receptor density); assay type: cell-based; details: for EC50: CHO GLP-1R clone H6, cAMP HTRF, geometric mean; for Emax: read-out: Assay 1 Emax (%)
Sequence of human GLP-1R (Homo sapiens, UniProt P43220, G168S) (P43220 24-463 G168S): as the sequence (P43220 24-463 L260F) above, with G145S, F237L counted along it
Procedure, shortened: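 Replicate runs were pooled. Potencies were averaged geometrically and maximal efficacies arithmetically, then rounded to two significant figures.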

[3] = CHO GLP-1R clone C6, arithmetic mean, relative to saturating GLP-1 (1 μM)
[4] = CHO GLP-1R clone H6, arithmetic mean, relative to saturating GLP-1 (1 μM)

Compound	EC50 (human GLP-1R [1]) [nM]	Emax (human GLP-1R [1]; [3]) [%]	EC50 (human GLP-1R [2]) [nM]	Emax (human GLP-1R [2]; [4]) [%]	Assay 2 Emax (%) (human GLP-1R [1]; [3])	Assay 1 Emax (%) (human GLP-1R [2]; [4])
N#Cc1ccc(COc2cccc(N3CCN(Cc4nc5ccc(C(=O)O)nc5n4C[C@@H]4CCO4)CC3)n2)c(F)c1 [Compound 123B, 2-[(4-{6-[(4-cyano-2-fluorobenzyl)oxy]pyridin-2-yl}piperazin-1-yl)methyl]-3-[(2S)-oxetan-2-ylmethyl]-3H-imidazo[4,5-b]pyridine-5-carboxylic acid]	45	95	2.4	87		
N#Cc1ccc(COc2nc(C3CCN(Cc4nc5ccc(C(=O)O)cc5n4C[C@@H]4CCO4)CC3)ccc2F)cc1 [Compound 127B, 2-[(4-{6-[(4-cyanobenzyl)oxy]-5-fluoropyridin-2-yl}piperidin-1-yl)methyl]-1-[(2S)-oxetan-2-ylmethyl]-1H-benzimidazole-6-carboxylic acid]	75	83	4.9	77		
N#Cc1ccc(COc2cccc(C3CCN(Cc4nc5ccc(C(=O)O)cc5n4C[C@@H]4CCCO4)CC3)n2)cc1 [Compound 131B, 2-[(4-{6-[(4-cyanobenzyl)oxy]pyridin-2-yl}piperidin-1-yl)methyl]-1-[(2S)-tetrahydrofuran-2-ylmethyl]-1H-benzimidazole-6-carboxylic acid]	1000	84	45	65		
N#Cc1ccc(COc2cccc(C3CCN(Cc4nc5ccc(C(=O)O)cc5n4C[C@H]4CCCO4)CC3)n2)cc1 [Compound 132B, 2-[(4-{6-[(4-cyanobenzyl)oxy]pyridin-2-yl}piperidin-1-yl)methyl]-1-[(2R)-tetrahydrofuran-2-ylmethyl]-1H-benzimidazole-6-carboxylic acid]	1800	85	70	80		
C[C@H]1CN(c2ccc(F)c(OCc3ccc(F)cc3F)n2)CCN1Cc1nc2ccc(C(=O)O)cc2n1C[C@@H]1CCO1 [Compound 133B, 2-{[(2S)-4-{6-[(2,4-difluorobenzyl)oxy]-5-fluoropyridin-2-yl}-2-methylpiperazin-1-yl]methyl}-1-[(2S)-oxetan-2-ylmethyl]-1H-benzimidazole-6-carboxylic acid]	1400	47	190	91		
C[C@H]1CN(c2cccc(OCc3ccc(F)cc3F)n2)CCN1Cc1nc2ccc(C(=O)O)cc2n1C[C@@H]1CCO1 [Compound 134B, 2-{[(2S)-4-{6-[(2,4-difluorobenzyl)oxy]pyridin-2-yl}-2-methylpiperazin-1-yl]methyl}-1-[(2S)-oxetan-2-ylmethyl]-1H-benzimidazole-6-carboxylic acid]	7700	100	300	92		
C[C@H]1CN(c2cccc(OCc3ccc(Cl)cc3F)n2)CCN1Cc1nc2ccc(C(=O)O)cc2n1C[C@@H]1CCO1 [Compound 135B, 2-{[(2S)-4-{6-[(4-chloro-2-fluorobenzyl)oxy]pyridin-2-yl}-2-methylpiperazin-1-yl]methyl}-1-[(2S)-oxetan-2-ylmethyl]-1H-benzimidazole-6-carboxylic acid]	5600	86	260	88		
C[C@H]1CN(c2cccc(OCc3ccc(Cl)cc3F)n2)CCN1Cc1nc2ccc(C(=O)O)nc2n1C[C@@H]1CCO1 [Compound 136B, 2-{[(2S)-4-{6-[(4-chloro-2-fluorobenzyl)oxy]pyridin-2-yl}-2-methylpiperazin-1-yl]methyl}-3-[(2S)-oxetan-2-ylmethyl]-3H-imidazo[4,5-b]pyridine-5-carboxylic acid]	4100	110	150	86		
C[C@H]1CN(c2cccc(OCc3ccc(C#N)cc3F)n2)CCN1Cc1nc2ccc(C(=O)O)nc2n1C[C@@H]1CCO1 [Compound 137B, 2-{[(2S)-4-{6-[(4-cyano-2-fluorobenzyl)oxy]pyridin-2-yl}-2-methylpiperazin-1-yl]methyl}-3-[(2S)-oxetan-2-ylmethyl]-3H-imidazo[4,5-b]pyridine-5-carboxylic acid]	1800	89	90	76		
C[C@H]1CN(c2cccc(OCc3ccc(C#N)cc3)n2)CCN1Cc1nc2ccc(C(=O)O)cc2n1C[C@@H]1CCO1 [Compound 138B, 2-{[(2S)-4-{6-[(4-cyanobenzyl)oxy]pyridin-2-yl}-2-methylpiperazin-1-yl]methyl}-1-[(2S)-oxetan-2-ylmethyl]-1H-benzimidazole-6-carboxylic acid]					89	95
N#Cc1ccc(COc2cccc(N3CCN(Cc4nc5ccc(C(=O)O)cc5n4Cc4ncco4)CC3)n2)c(F)c1 [Compound 140B, 2-[(4-{6-[(4-cyano-2-fluorobenzyl)oxy]pyridin-2-yl}piperazin-1-yl)methyl]-1-(1,3-oxazol-2-ylmethyl)-1H-benzimidazole-6-carboxylic acid]	150	92	36	84		
N#Cc1ccc(COc2cccc(N3CCN(Cc4nc5ccc(C(=O)O)cc5n4Cc4cnco4)CC3)n2)c(F)c1 [Compound 142B, 2-[(4-{6-[(4-cyano-2-fluorobenzyl)oxy]pyridin-2-yl}piperazin-1-yl)methyl]-1-(1,3-oxazol-5-ylmethyl)-1H-benzimidazole-6-carboxylic acid]	170	85	9	82		
C[C@H]1CN(c2cccc(OCc3ccc(C#N)cc3F)n2)CCN1Cc1nc2ccc(C(=O)O)cc2n1Cc1ncco1 [Compound 146B, 2-{[(2S)-4-{6-[(4-cyano-2-fluorobenzyl)oxy]pyridin-2-yl}-2-methylpiperazin-1-yl]methyl}-1-(1,3-oxazol-2-ylmethyl)-1H-benzimidazole-6-carboxylic acid]	680	110	43	82		

More lines, now with the values ahead:

EC50 (human GLP-1R [1]) [nM]	Emax (human GLP-1R [1]; [3]) [%]	EC50 (human GLP-1R [2]) [nM]	Emax (human GLP-1R [2]; [4]) [%]	Assay 2 Emax (%) (human GLP-1R [1]; [3])	Assay 1 Emax (%) (human GLP-1R [2]; [4])	Compound
110	94	6.4	90			N#Cc1ccc(COc2cccc(C3CCN(Cc4nc5ccc(C(=O)O)cc5n4C[C@@H]4CCCO4)CC3)n2)c(F)c1 [Compound 124B, 2-[(4-{6-[(4-cyano-2-fluorobenzyl)oxy]pyridin-2-yl}piperidin-1-yl)methyl]-1-[(2S)-tetrahydrofuran-2-ylmethyl]-1H-benzimidazole-6-carboxylic acid]
1200	44	150	74			N#Cc1ccc(COc2cccc(C3CCN(Cc4nc5ccc(C(=O)O)cc5n4Cc4ncco4)CC3)n2)c(F)c1 [Compound 139B, 2-[(4-{6-[(4-cyano-2-fluorobenzyl)oxy]pyridin-2-yl}piperidin-1-yl)methyl]-1-(1,3-oxazol-2-ylmethyl)-1H-benzimidazole-6-carboxylic acid]
150	84	6	73			N#Cc1ccc(COc2cccc(C3CCN(Cc4nc5ccc(C(=O)O)cc5n4Cc4cnco4)CC3)n2)c(F)c1 [Compound 141B, 2-[(4-{6-[(4-cyano-2-fluorobenzyl)oxy]pyridin-2-yl}piperidin-1-yl)methyl]-1-(1,3-oxazol-5-ylmethyl)-1H-benzimidazole-6-carboxylic acid]
1600	46	140	72			Cn1cncc1Cn1c(CN2CCC(c3cccc(OCc4ccc(Cl)cc4F)n3)CC2)nc2ccc(C(=O)O)cc21 [Compound 143B, 2-[(4-{6-[(4-chloro-2-fluorobenzyl)oxy]pyridin-2-yl}piperidin-1-yl)methyl]-1-[(1-methyl-1H-imidazol-5-yl)methyl]-1H-benzimidazole-6-carboxylic acid]
94	76	5.8	72			Cn1nncc1Cn1c(CN2CCC(c3cccc(OCc4ccc(Cl)cc4F)n3)CC2)nc2ccc(C(=O)O)cc21 [Compound 144B, 2-[(4-{6-[(4-chloro-2-fluorobenzyl)oxy]pyridin-2-yl}piperidin-1-yl)methyl]-1-[(1-methyl-1H-1,2,3-triazol-5-yl)methyl]-1H-benzimidazole-6-carboxylic acid]
2200	83	120	76			O=C(O)c1ccc2nc(CN3CCC(c4cccc(OCc5ccc(Cl)cc5F)n4)CC3)n(Cc3cnco3)c2c1 [Compound 145B, 2-[(4-{6-[(4-chloro-2-fluorobenzyl)oxy]pyridin-2-yl}piperidin-1-yl)methyl]-1-(1,3-oxazol-5-ylmethyl)-1H-benzimidazole-6-carboxylic acid]
> 15000	100	770	78			O=C(O)c1ccc2nc(CN3CCC(c4cccc(OCc5ccc(F)cc5F)n4)CC3)n(Cc3ncco3)c2c1 [Compound 149B, 2-[(4-{6-[(2,4-difluorobenzyl)oxy]pyridin-2-yl}piperidin-1-yl)methyl]-1-(1,3-oxazol-2-ylmethyl)-1H-benzimidazole-6-carboxylic acid]
3000	92	110	71			CCn1cncc1Cn1c(CN2CCC(c3cccc(OCc4ccc(F)cc4F)n3)CC2)nc2ccc(C(=O)O)cc21 [Compound 150B, 2-[(4-{6-[(2,4-difluorobenzyl)oxy]pyridin-2-yl}piperidin-1-yl)methyl]-1-[(1-ethyl-1H-imidazol-5-yl)methyl]-1H-benzimidazole-6-carboxylic acid]
